Measurements published in patent publication US9493436B2, “Tyrosine phosphatase inhibitors and uses thereof to modulate the activity of enzymes involved in the pathology of Mycobacterium tuberculosis” (priority 2011, dated 2016).
Values joined by “and” are separate entries in the source; they are usually repeats but may differ in a detail not shown here. Equal values may be shown once. “Also recorded” adds a separate entry of the source. Read-outs that look alike come from different tables or passages of the source.

Key:
[1] = target: T1, Cdc14A (Homo sapiens, UniProt Q9UNH5); test: PTP selectivity panel: Cdc14A; assay type: biochemical
T1 sequence (Q9UNH5 1-594): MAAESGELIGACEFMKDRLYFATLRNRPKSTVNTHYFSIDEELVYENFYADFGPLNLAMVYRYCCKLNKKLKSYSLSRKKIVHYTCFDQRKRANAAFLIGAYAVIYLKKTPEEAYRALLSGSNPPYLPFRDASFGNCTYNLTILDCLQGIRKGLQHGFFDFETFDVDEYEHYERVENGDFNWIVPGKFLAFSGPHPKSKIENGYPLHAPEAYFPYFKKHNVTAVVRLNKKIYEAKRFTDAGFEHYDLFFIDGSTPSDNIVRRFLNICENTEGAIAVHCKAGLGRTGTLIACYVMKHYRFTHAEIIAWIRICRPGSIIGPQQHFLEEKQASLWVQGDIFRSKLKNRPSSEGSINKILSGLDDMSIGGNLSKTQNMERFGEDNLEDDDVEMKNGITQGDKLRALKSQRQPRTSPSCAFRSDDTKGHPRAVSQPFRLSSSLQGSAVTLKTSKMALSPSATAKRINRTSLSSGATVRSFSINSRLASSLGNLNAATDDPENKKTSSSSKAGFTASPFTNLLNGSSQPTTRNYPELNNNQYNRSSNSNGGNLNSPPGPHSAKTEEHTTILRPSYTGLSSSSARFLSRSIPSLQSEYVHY

[2] = test system: ERK1/2 phosphorylation in Raw264.7 cells expressing mPTPB; test: ERK phosphorylation in macrophage cells expressing mPTPB (western blot); assay type: cell-based, mouse; details: IFN-γ, L01Z08 especially at 120 and 240 nM
Procedure: (§1) As explained above, ERK phosphorylation is important in the cellular secretion pathway of IL-6. However, mPTPB blocks or inhibits the phosphorylation of ERK which reduces and potentially prevents IL-6 secretion altogether.
Raw264.7 mouse macrophages were cultured in Dulbecco's modified Eagle's medium (DMEM) supplemented with 10% FBS (Invitrogen), penicillin (50 units/mL), and streptomycin (50 μg/mL) under a humidified atmosphere containing 5% CO2 at 37° C. Transfected Raw264.7 cells (Vector, WT-mPTPB) were seeded in a 12-well plate at a density of 4×10^4 cells/well. The following day cells were treated with mPTPB inhibitor 213a for 1 hr, then stimulated with IFN-γ (200 U/ml) for 1 h. […]. Wash with ice-cold phosphate buffered saline, and lysed with lysis buffer on ice for 30 min. Cell lysate is then cleared by centrifuging at 13,000 rpm for 15 min. The phosphorylation of ERK1/2 and Akt was detected by western blotting.

[3] = Oral and intravenous pharmacokinetics in mice; assay type: in vivo
Procedure: Oral and intravenous (IV) pharmacokinetics were determined for compounds L01-Z06, L01-Z08 and L01-Z09 in mice. Drugs were administered by a single IV injection (5 mg/kg) or oral gavage (25 mg/kg) in 20% hydroxypropyl-b-cyclodextrin/2% diethanolamine and blood samples were collected at 0.5, 1, 3, 6, 9 and 24 hours later. All three compounds were readily administered by both IV and oral routes. […] Drug levels peaked at […] after IV injection, or […] after oral gavage. Based on these parameters, all three compounds are classified as highly permeable with moderate-slow clearance rates.

[4] = target: T2, TC-PTP (Homo sapiens, UniProt P17706); test: PTP selectivity panel: TC-PTP; assay type: biochemical; details: read-out: IC50 (μM) TC-PTP
T2 sequence (P17706 1-415): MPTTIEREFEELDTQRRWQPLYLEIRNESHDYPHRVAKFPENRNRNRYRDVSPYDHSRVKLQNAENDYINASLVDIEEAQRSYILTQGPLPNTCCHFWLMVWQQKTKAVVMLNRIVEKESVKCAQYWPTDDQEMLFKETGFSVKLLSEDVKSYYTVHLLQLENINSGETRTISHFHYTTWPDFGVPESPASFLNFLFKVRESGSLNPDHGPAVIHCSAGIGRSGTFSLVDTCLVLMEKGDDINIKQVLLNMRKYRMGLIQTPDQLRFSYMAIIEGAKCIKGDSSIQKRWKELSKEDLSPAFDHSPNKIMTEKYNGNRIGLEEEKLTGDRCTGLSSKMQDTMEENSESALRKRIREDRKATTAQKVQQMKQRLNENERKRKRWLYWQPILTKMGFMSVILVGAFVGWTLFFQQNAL

[5] = test system: IL-6 secretion in cells expressing mPTPB; test: IL-6 secretion in cells expressing mPTPB; assay type: cell-based; details: especially at 120 and 240 nM
Text: as §1

[6] = target: SHP1-D1C (Homo sapiens, UniProt P29350); test: biochemical
SHP1-D1C, sequence (P29350 244-528 limits assumed): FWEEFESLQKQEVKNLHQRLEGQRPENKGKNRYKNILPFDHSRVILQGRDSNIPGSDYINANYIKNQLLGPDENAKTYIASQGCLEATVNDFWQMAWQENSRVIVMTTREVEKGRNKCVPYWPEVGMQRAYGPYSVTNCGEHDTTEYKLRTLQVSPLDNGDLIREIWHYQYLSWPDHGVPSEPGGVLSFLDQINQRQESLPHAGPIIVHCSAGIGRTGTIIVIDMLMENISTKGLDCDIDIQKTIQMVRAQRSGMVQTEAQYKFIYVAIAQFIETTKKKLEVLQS

[7] = target: T3, mPTPB (Mycobacterium tuberculosis, UniProt I6WXK4); test: biochemical; assay type: biochemical
T3 construct: The full-length mPTPB with a N-terminal His6-tag was expressed and purified; His6 (N); made in house; host or cells: E. coli BL21/DE3 (pET28b-mPTPB)
T3 sequence (I6WXK4 1-276): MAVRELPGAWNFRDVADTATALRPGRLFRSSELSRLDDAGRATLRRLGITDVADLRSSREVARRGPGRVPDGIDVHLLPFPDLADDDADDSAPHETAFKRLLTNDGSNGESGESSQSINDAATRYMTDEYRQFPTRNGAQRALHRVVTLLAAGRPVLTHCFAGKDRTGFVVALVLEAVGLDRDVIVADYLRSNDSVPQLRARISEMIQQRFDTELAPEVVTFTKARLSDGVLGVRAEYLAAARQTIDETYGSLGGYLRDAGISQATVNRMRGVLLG

O=C(O)c1cc2c(C#Cc3cccc(C(F)(F)F)c3)c(-c3ccccc3)oc2cc1O [32 (L01Z08)]
IC50 [1]: 6 ± 1 µM | ERK phosphorylation / ERK1/2 activity [2]: normal or near normal levels | clearance ranking among the three compounds ([3]; mice): slowest clearance of the three | Clearance % LPF ([3]; mice, IV 5 mg/kg): 28.9 % LPF | Clearance % LPF ([3]; mice, PO 25 mg/kg): 38.2 % LPF | Vdss ([3]; mice, PO 25 mg/kg): 6.58 L/kg | clearance ([3]; mice, PO 25 mg/kg): 20.602 mL/min/kg | time active levels (sufficient to inhibit target activity by 80% in cells) maintained ([3]; mice, after oral delivery): 18.5 h | Tmax ([3]; mouse, blood, iv, 5 mg/kg, mice, IV 5 mg/kg): 0.5 h | half-life ([3]; mouse, blood, mice, IV 5 mg/kg): 4.1 h | clearance ([3]; mouse, blood, mice, IV 5 mg/kg, data normalized to 25 mg/kg dose, read-out: Clearance (converted)): 15.6 mL/min/kg | Cmax ([3]; mouse, blood, mice, IV 5 mg/kg, data normalized to 25 mg/kg dose, read-out: Cmax (ng/mL)): 10200 ng/mL | Cmax ([3]; mouse, blood, mice, IV 5 mg/kg, data normalized to 25 mg/kg dose, read-out: Cmax nM): 25500 nM | Vd ([3]; mouse, blood, mice, IV 5 mg/kg, read-out: Vdss): 5.53 L/kg | half-life ([3]; mouse, blood, mice, PO 25 mg/kg): 3.7 h | bioavailability ([3]; mouse, blood, mice, PO 25 mg/kg vs IV 5 mg/kg, read-out: Absolute Bioavailability (oral)): 75.6% | Cmax ([3]; mouse, blood, mice, PO 25 mg/kg, read-out: Cmax (ng/mL)): 2880 ng/mL | Cmax ([3]; mouse, blood, mice, PO 25 mg/kg, read-out: Cmax nM): 7210 nM | oral pK values over the 24 hour duration of the assay ([3]; oral, 24 hours): remain relatively constant | IC50 [4]: 5.7 ± 0.4 µM | IL-6 secretion [5]: returned to normal or near normal IL-6 secretion levels

Cn1c(-c2ccccc2C(F)(F)F)c(I)c2cc(C(=O)O)c(O)cc21 [Compound 207a, 6-hydroxy-3-iodo-1-methyl-2-(2-(trifluoromethyl)phenyl)-1H-indole-5-carboxylic acid]
IC50 [6]: 86.8 ± 0.4 µM | mode of mPTPB inhibition ([7]; kinetic analyses, Lineweaver-Burk plot): Non-competitive inhibition; also recorded: reversible and noncompetitive inhibitor | Ki ([7]; pH 7.0, 25° C.): 1.21 ± 0.04 µM | IC50 ([7]; pNPP substrate, pH 7.0, 25° C., read-out: IC50 (μM) against mPTPB): 1.2 µM and 1.18 µM | selectivity for mPTPB over the other ten PTPs ([7]; panel of 11 PTPs): 47 fold
